One assay concerns HEK-293 cells. Briefly: HEK-293 cytotoxicity detection (CellTiter-Glo). The assay is classed as cell-based. To be noted: HEK-293 cells, 72 h incubation, CellTiter-Glo luminescence, IC50 of cell proliferation inhibition, read-out: HEK293. An outline of the steps:
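HEK-293 cells exposed 72 h to an 8-point, 4-fold dilution series (top 500× stock 5 mM in DMSO; 0.2% DMSO final). Viability by CellTiter-Glo luminescence after 10 min at room temperature; IC50 from four-parameter Hill fit of percent inhibition.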
On the technique in general: Cellular ATP, detected with luciferase, serves as a proxy for viable cell number.

A further assay deals with T1, BTK (Homo sapiens, UniProt Q06187).
T1 construct: High control=Cell group with added DMSO and without compound, indicating microplate readings without BTK degradation; endogenous in cells; host or cells: TMD-8
Briefly: BTK degradation in TMD-8 cells (HTRF assay). The assay is classed as cell-based. The note with it: 6 h treatment, IC50 (DC50) of BTK degradation. The gist of the method:
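TMD-8 cells were exposed for 6 h to 8 compound doses (6-fold serial dilution, 0.2% DMSO). Lysed cells were incubated overnight at room temperature with HTRF antibodies and read at 665/620 nm. DC50 came from four-parameter fitting of % inhibition versus concentration.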
For orientation: TR-FRET usually uses a lanthanide donor and a delayed reading to cut background.

Read-outs that look alike come from different tables or passages of the source.

T1 sequence (Q06187 whole entry): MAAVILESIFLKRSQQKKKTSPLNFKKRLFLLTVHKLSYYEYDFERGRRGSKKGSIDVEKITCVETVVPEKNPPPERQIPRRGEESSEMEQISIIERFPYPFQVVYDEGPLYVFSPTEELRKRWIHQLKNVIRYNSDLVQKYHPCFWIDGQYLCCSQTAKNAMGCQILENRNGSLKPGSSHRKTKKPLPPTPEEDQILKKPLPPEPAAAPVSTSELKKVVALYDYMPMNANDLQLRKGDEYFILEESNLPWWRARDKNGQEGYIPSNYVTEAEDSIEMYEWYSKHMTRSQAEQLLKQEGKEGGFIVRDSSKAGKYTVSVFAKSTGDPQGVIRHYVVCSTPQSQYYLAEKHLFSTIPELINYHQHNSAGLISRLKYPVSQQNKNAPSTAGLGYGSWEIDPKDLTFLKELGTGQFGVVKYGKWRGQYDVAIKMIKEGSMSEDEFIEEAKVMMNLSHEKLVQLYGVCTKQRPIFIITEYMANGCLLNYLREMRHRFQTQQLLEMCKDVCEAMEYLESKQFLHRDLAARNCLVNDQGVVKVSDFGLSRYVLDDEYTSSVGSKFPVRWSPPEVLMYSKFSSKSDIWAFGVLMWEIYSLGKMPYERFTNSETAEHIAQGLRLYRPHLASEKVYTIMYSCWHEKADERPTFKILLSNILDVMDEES

A word on the DC50: it is the concentration giving 50% degradation. Lower therefore signals degradation at low concentration. `Cc1cc(-c2ncnc3[nH]c4cc(N5CCC6(CC5)CCN(C5CC(c7ccc([C@H]8CCC(=O)NC8=O)cc7)C5)C6)ccc4c23)ccc1[C@@H](C)NC(=O)c1nc(C(C)(C)C)no1` (stereo partly drawn) [Example 102, 3-(tert-butyl)-N—((R)-1-(4-(7-(2-(3-(4-((R)-2,6-dioxopiperidin-3-yl)phenyl)cyclobutyl)-2,8-diazaspiro[4.5]decan-8-yl)-9H-pyrimido[4,5-b]indol-4-yl)-2-methylphenyl)ethyl)-1,2,4-oxadiazole-5-carboxamide]: the IC50 in the assay on HEK-293 cells (Homo sapiens) turned out to be 1020 nM. This molecule also registered a DC50 at BTK of 4.88 nM.
For `Cc1cc(-c2ncnc3[nH]c4cc(N5CCC6(CC5)CCN(C5CC(c7ccc(NC8CCC(=O)NC8=O)cc7)C5)C6)ccc4c23)ccc1[C@@H](C)NC(=O)c1nc(C(C)(C)C)no1` (stereo partly drawn) [Example 103, 3-(tert-butyl)-N-((1R)-1-(4-(7-(2-(3-(4-((2,6-dioxopiperidin-3-yl)amino)phenyl)cyclobutyl)-2,8-diazaspiro[4.5]decan-8-yl)-9H-pyrimido[4,5-b]indol-4-yl)-2-methylphenyl)ethyl)-1,2,4-oxadiazole-5-carboxamide], in that order: 1060 nM and 3.05 nM.
For `Cc1cc(-c2ncnc3[nH]c4cc(CN5CCN(CC6CCN(c7ccc(N8CCC(=O)NC8=O)cc7)CC6)CC5)ccc4c23)ccc1[C@@H](C)NC(=O)c1nc(C(C)(C)C)no1` [Example 104, (R)-3-(tert-butyl)-N-(1-(4-(7-((4-((1-(4-(2,4-dioxotetrahydropyrimidin-1(2H)-yl)phenyl)piperidin-4-yl)methyl)piperazin-1-yl)methyl)-9H-pyrimido[4,5-b]indol-4-yl)-2-methylphenyl)ethyl)-1,2,4-oxadiazole-5-carboxamide], in that order: over 10000 nM and 1.16 nM.
Take `Cc1cc(-c2ncnc3[nH]c4cc(CCN5CCN(C6CN(c7ccc(N8CCC(=O)NC8=O)cc7)C6)CC5)ccc4c23)ccc1[C@@H](C)NC(=O)c1nc(C(C)(C)C)no1` [Example 105, (R)-3-(tert-butyl)-N-(1-(4-(7-(2-(4-(1-(4-(2,4-dioxotetrahydropyrimidin-1(2H)-yl)phenyl)azetidin-3-yl)piperazin-1-yl)ethyl)-9H-pyrimido[4,5-b]indol-4-yl)-2-methylphenyl)ethyl)-1,2,4-oxadiazole-5-carboxamide]: in the assay with HEK-293 cells (Homo sapiens), the IC50 is over 10000 nM. This molecule yielded a DC50 at BTK of 0.512 nM.
For `Cc1cc(-c2ncnc3[nH]c4cc(CCN5CCN(c6ccc(N7CCC(=O)NC7=O)cc6)CC5)ccc4c23)ccc1[C@@H](C)NC(=O)c1nc(C(C)(C)C)no1` [Example 106, (R)-3-(tert-butyl)-N-(1-(4-(7-(2-(4-(4-(2,4-dioxotetrahydropyrimidin-1(2H)-yl)phenyl)piperazin-1-yl)ethyl)-9H-pyrimido[4,5-b]indol-4-yl)-2-methylphenyl)ethyl)-1,2,4-oxadiazole-5-carboxamide], in that order: over 10000 nM and 0.324 nM.
As to `Cc1cc(-c2ncnc3[nH]c4cc(N5CCC6(CC5)CCN(C5CC(c7ccc(N[C@@H]8CCC(=O)NC8=O)cc7)C5)CC6)ccc4c23)ccc1[C@@H](C)NC(=O)c1nc(C(C)(C)C)no1` (stereo partly drawn) [Example 107, 3-(tert-butyl)-N—((R)-1-(4-(7-(9-((1S,3r)-3-(4-(((S)-2,6-dioxopiperidin-3-yl)amino)phenyl)cyclobutyl)-3,9-diazaspiro[5.5]undecan-3-yl)-9H-pyrimido[4,5-b]indol-4-yl)-2-methylphenyl)ethyl)-1,2,4-oxadiazole-5-carboxamide], the IC50 in the assay with HEK-293 cells came out at 1030 nM. On BTK, this molecule registered a DC50 of 2.99 nM.
For `Cc1cc(-c2ncnc3[nH]c4cc(N5CCC6(CC5)CCN(C5CC(c7ccc(N[C@H]8CCC(=O)NC8=O)cc7)C5)CC6)ccc4c23)ccc1[C@@H](C)NC(=O)c1nc(C(C)(C)C)no1` (stereo partly drawn) [Example 108, 3-(tert-butyl)-N-((1R)-1-(4-(7-(9-((1s,3s)-3-(4-((2,6-dioxopiperidin-3-yl)amino)phenyl)cyclobutyl)-3,9-diazaspiro[5.5]undecan-3-yl)-9H-pyrimido[4,5-b]indol-4-yl)-2-methylphenyl)ethyl)-1,2,4-oxadiazole-5-carboxamide], in that order: 949 nM and 2.64 nM.
For `Cc1cc(-c2ncnc3[nH]c4cc(N5CCC6(CC5)CCN([C@H]5C[C@H](c7ccc(N[C@@H]8CCC(=O)NC8=O)cc7)C5)CC6)ccc4c23)ccc1[C@@H](C)NC(=O)c1nc(C(C)(C)C)no1` [Example 109, 3-(tert-butyl)-N—((R)-1-(4-(7-(9-((1R,3r)-3-(4-(((R)-2,6-dioxopiperidin-3-yl)amino)phenyl)cyclobutyl)-3,9-diazaspiro[5.5]undecan-3-yl)-9H-pyrimido[4,5-b]indol-4-yl)-2-methylphenyl)ethyl)-1,2,4-oxadiazole-5-carboxamide], in the assay with HEK-293 cells (Homo sapiens), the IC50 stood at 1010 nM. For the same molecule, the DC50 on BTK amounted to 6.07 nM.
The like results for `Cc1cc(-c2ncnc3[nH]c4cc(N5CCC6(CC5)CCN([C@H]5C[C@H](c7ccc([C@@H]8CCC(=O)NC8=O)cc7)C5)CC6)ccc4c23)ccc1[C@@H](C)NC(=O)c1nc(C(C)(C)C)no1` [Example 110, 3-(tert-butyl)-N—((R)-1-(4-(7-(9-((1S,3r)-3-(4-((S)-2,6-dioxopiperidin-3-yl)phenyl)cyclobutyl)-3,9-diazaspiro[5.5]undecan-3-yl)-9H-pyrimido[4,5-b]indol-4-yl)-2-methylphenyl)ethyl)-1,2,4-oxadiazole-5-carboxamide] were, in that order, 2000 nM and 1.25 nM.
The like results for `Cc1cc(-c2ncnc3[nH]c4cc(N5CCC6(CC5)CCN([C@H]5C[C@@H](c7ccc([C@@H]8CCC(=O)NC8=O)cc7)C5)CC6)ccc4c23)ccc1[C@@H](C)NC(=O)c1nc(C(C)(C)C)no1` [Example 111, 3-(tert-butyl)-N—((R)-1-(4-(7-(9-((1R,3s)-3-(4-((S)-2,6-dioxopiperidin-3-yl)phenyl)cyclobutyl)-3,9-diazaspiro[5.5]undecan-3-yl)-9H-pyrimido[4,5-b]indol-4-yl)-2-methylphenyl)ethyl)-1,2,4-oxadiazole-5-carboxamide] were, in that order, 1370 nM and 2.89 nM.
For `Cc1cc(-c2ncnc3[nH]c4cc(N5CCC6(CC5)CCN([C@H]5C[C@H](c7ccc([C@H]8CCC(=O)NC8=O)cc7)C5)CC6)ccc4c23)ccc1[C@@H](C)NC(=O)c1nc(C(C)(C)C)no1` [Example 112, 3-(tert-butyl)-N—((R)-1-(4-(7-(9-((1R,3r)-3-(4-((R)-2,6-dioxopiperidin-3-yl)phenyl)cyclobutyl)-3,9-diazaspiro[5.5]undecan-3-yl)-9H-pyrimido[4,5-b]indol-4-yl)-2-methylphenyl)ethyl)-1,2,4-oxadiazole-5-carboxamide], in that order: 1890 nM and 2.47 nM.
For `Cc1cc(-c2ncnc3[nH]c4cc(N5CCC6(CC5)CCN([C@H]5C[C@@H](c7ccc([C@H]8CCC(=O)NC8=O)cc7)C5)CC6)ccc4c23)ccc1[C@@H](C)NC(=O)c1nc(C(C)(C)C)no1` [Example 113, 3-(tert-butyl)-N—((R)-1-(4-(7-(9-((1S,3s)-3-(4-((R)-2,6-dioxopiperidin-3-yl)phenyl)cyclobutyl)-3,9-diazaspiro[5.5]undecan-3-yl)-9H-pyrimido[4,5-b]indol-4-yl)-2-methylphenyl)ethyl)-1,2,4-oxadiazole-5-carboxamide], the IC50 in the assay on HEK-293 cells (Homo sapiens) was 1120 nM. At BTK, this molecule had a DC50 of 3.46 nM.

The record behind these values is patent US20240366770A1, “DEGRADATION OF BRUTON'S TYROSINE KINASE (BTK) BY CONJUGATION OF BTK INHIBITORS WITH E3 LIGASE LIGAND AND METHODS OF USE” (BeiGene Switzerland GmbH, priority 2021, published 2024).
